Activity calls are given as the source filed them. The calls are words filed in the database; no cut-off is given here. Residues, ends and D or L forms follow the SMILES beside them. *: point of attachment. X1 = O=C(CCC(=O)*)OCC(O)C1OC(=O)C(O)=C1O; Palmitoyl = CCCCCCCCCCCCCCCC(=O)*
Legend:
[1] = test system: HDF; experiment: Stimulation of collagen biosynthesis in primary cultured neonatal HDF at 1 to 1000 uM after 72 hrs by ELISA in presence of fetal bovine serum; type: functional, cell-based; conditions: Homo sapiens
[2] = Cytotoxicity against HDF at >100 uM; type: cell-based; conditions: human
[3] = test system: HDF; experiment: Stimulation of collagen biosynthesis in primary cultured neonatal HDF at 100 uM after 72 hrs by ELISA in presence of fetal bovine serum; type: functional, cell-based; conditions: Homo sapiens
[4] = Stability in rat skin homogenates; type: ADME, tissue-based, Zone of skin; conditions: read-out: Stability
[5] = Stability in rat skin homogenates assessed as compound remain after 6 hrs; type: ADME, tissue-based, Zone of skin; conditions: read-out: Stability

Row | Compound | Activity [1] | Activity [2] | Activity [3] | half-life [4] [h] | remaining at 6 h [5] [%]
1 | O=C1O[C@H]([C@@H](O)CO)C(O)=C1O | inactive |  |  |  | 
2 | CCCCCCCCCCCCCCCC(=O)N[C@@H](CCCCN)C(=O)N[C@H](C(=O)N[C@H](C(=O)N[C@@H](CCCCN)C(=O)N[C@@H](CO)C(=O)O)[C@@H](C)O)[C@@H](C)O (Palmitoyl-KTTKS-OH) |  | Active | Active |  | 
3 | C[C@@H](O)[C@H](NC(=O)[C@H](CCCCN)NC(=O)CCC(=O)OCC(O)C1OC(=O)C(O)=C1O)C(=O)N[C@H](C(=O)N[C@@H](CCCCN)C(=O)N[C@@H](CO)C(=O)O)[C@@H](C)O (some centres not stated) (X1-KTTKS-OH) | Active |  |  | > 6 | < 10
4 | H-KTTKS-OH | inactive |  |  |  | 
